Test results reported in ChEMBL document CHEMBL2177010, “Discovery and preclinical pharmacology of a selective ATP-competitive Akt inhibitor (GDC-0068) for the treatment of human tumors” (J Med Chem, 2012).
Active and inactive are the calls of the source. The calls are words filed in the database; no cut-off is given here.

How the values were obtained:
[1] = biological target: T1, RAC-alpha serine/threonine-protein kinase (Homo sapiens, UniProt P31749)
Description: Competitive inhibition of wild-type full-length amino-terminal polyhistidine-tagged human Akt1 expressed in recombinant baculovirus system using fluorescence labeled substrate after 60 mins by fluorescence polarization assay in presence of ATP

[2] = biological target: RAC-gamma serine/threonine-protein kinase (Homo sapiens, UniProt Q9Y243)
Description: Competitive inhibition of wild-type full-length amino-terminal polyhistidine-tagged human Akt3 expressed in recombinant baculovirus system using fluorescence labeled Crosstide as substrate after 60 mins by fluorescence polarization assay in presence of ATP

[3] = biological target: T1, RAC-alpha serine/threonine-protein kinase; remark: listed apart in the source
Description: Inhibition of Akt1 in human LNCAP cells assessed as phosphorylation of PRAS40 at Thr246 after 1.5 hrs

[4] = Competitive inhibition of PKA expressed in Escherichia coli assessed as fluorescence labeled peptide substrate phosphorylation after 60 mins in presence of ATP
[5] = Permeability across apical to basolateral side in human Caco2 cells; format: ADME, cell-based; conditions: Caco-2, read-out: permeability
[6] = Permeability across basolateral to apical side in human Caco2 cells; format: ADME, cell-based; conditions: Caco-2, read-out: permeability
[7] = Plasma concentration in nu/nu mouse xenografted with human PC3 cells at 50 mg/kg, po within 1 hr by LC/MS/MS analysis; format: ADME, organism-based, PC-3; parameters: dose 50 mg/kg, route oral
BT-474 = assay: Cytotoxicity against human BT474M1 cells assessed as decrease in cell viability after 96 hrs by CellTitre-Glo assay; conditions: BT474M1, 96 h
Mus musculus [8] = assay: Inhibition of Akt in nu/nu mouse xenografted with human PC3 cells assessed as decrease in tumor p-PRAS40 level at 100 mg/kg, po at 8 hrs by ELISA relative to total PRAS40; format: functional; conditions: PC-3, 8 h
[9] = Plasma concentration in nu/nu mouse xenografted with human PC3 cells at 50 mg/kg, po at 1 hr by LC/MS/MS analysis; format: ADME, organism-based, PC-3; parameters: dose 50 mg/kg, route oral
LNCaP = assay: Cytotoxicity against human LNCAP cells assessed as reduction of resazurin to resorufin after 72 hrs
PC-3 [10] = assay: Antitumor activity against human PC3 xenografted in nu/nu mouse assessed as inhibition of tumor growth at 100 mg/kg, po qd after 11 days; format: functional; conditions: PC-3, 264 h, read-out: TGI
[11] = Solubility of the compound at pH 1.2 to 7.4; format: physicochemical; conditions: buffer
PC-3 [12] = assay: Antitumor activity against human PC3 xenografted in po dosed nu/nu mouse assessed as inhibition of tumor growth administered once daily measured after 11 days; format: functional; conditions: PC-3, po, 264 h, read-out: MED
Mus musculus [13] = assay: Toxicity in nu/nu mouse xenografted with human PC3 cells assessed as loss in body weight at 1 to 100 mg/kg, po qd relative to vehicle-treated control; format: organism-based, PC-3; parameters: dose 1-100 mg/kg, route oral; conditions: in vivo
[14] = Plasma concentration in nu/nu mouse xenografted with human PC3 cells at 50 mg/kg, po at 9 hrs by LC/MS/MS analysis; format: ADME, organism-based, PC-3; parameters: dose 50 mg/kg, route oral
PC-3 [15] = assay: Antitumor activity against human PC3 xenografted in nu/nu mouse assessed as inhibition of tumor growth at 25 mg/kg, po qd after 11 days; format: functional; conditions: PC-3, 264 h, read-out: TGI
Mus musculus [16] = assay: Inhibition of Akt in nu/nu mouse xenografted with human PC3 cells assessed as decrease in tumor p-PRAS40 level at 100 mg/kg, po within 3 hrs by ELISA relative to total PRAS40; format: functional; conditions: PC-3, 3 h
MCF7 = assay: Cytotoxicity against human MCF7 cells overexpressing Her2 assessed as decrease in cell viability after 96 hrs by CellTitre-Glo assay; conditions: MCF7, 96 h
[17] = biological target: T1, RAC-alpha serine/threonine-protein kinase; conditions: BT474M1
Description: Inhibition of Akt1-mediated PRAS40 phosphorylation in human BT474M1 cells

Mus musculus [18] = assay: Toxicity in nu/nu mouse xenografted with human PC3 cells assessed as loss in body weight at 150 mg/kg, po qd after 8 days relative to vehicle-treated control; format: organism-based, PC-3; parameters: dose 150 mg/kg, route oral; conditions: in vivo, 192 h
[19] = Plasma concentration in nu/nu mouse xenografted with human PC3 cells at 100 mg/kg, po at 8 hrs by LC/MS/MS analysis; format: ADME, organism-based, PC-3; parameters: dose 100 mg/kg, route oral
PC-3 [20] = assay: Antitumor activity against human PC3 xenografted in nu/nu mouse assessed as inhibition of tumor growth at 50 mg/kg, po bid after 11 days; format: functional; conditions: PC-3, 264 h, read-out: TGI
[21] = Plasma concentration in nu/nu mouse xenografted with human PC3 cells at 12.5 mg/kg, po within 1 hr by LC/MS/MS analysis; format: ADME, organism-based, PC-3; parameters: dose 12.5 mg/kg, route oral
PC-3 [22] = assay: Cytotoxicity against human PC3 cells assessed as decrease in cell viability after 96 hrs by CellTitre-Glo assay; conditions: PC-3, 96 h

T1 sequence (P31749 whole entry): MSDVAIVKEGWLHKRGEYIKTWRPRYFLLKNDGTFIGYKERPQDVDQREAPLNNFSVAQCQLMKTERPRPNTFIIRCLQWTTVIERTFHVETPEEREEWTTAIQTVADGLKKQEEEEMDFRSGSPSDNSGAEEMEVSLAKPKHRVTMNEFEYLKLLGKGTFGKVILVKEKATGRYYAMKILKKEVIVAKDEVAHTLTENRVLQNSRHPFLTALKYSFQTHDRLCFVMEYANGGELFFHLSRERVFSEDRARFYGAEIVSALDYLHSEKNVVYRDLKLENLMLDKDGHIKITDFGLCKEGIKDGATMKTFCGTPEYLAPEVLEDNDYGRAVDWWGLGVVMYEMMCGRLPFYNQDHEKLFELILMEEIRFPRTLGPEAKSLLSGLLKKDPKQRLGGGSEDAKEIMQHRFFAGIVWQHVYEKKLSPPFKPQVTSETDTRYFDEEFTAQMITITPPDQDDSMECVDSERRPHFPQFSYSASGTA
RAC-gamma serine/threonine-protein kinase, sequence (Q9Y243 whole entry): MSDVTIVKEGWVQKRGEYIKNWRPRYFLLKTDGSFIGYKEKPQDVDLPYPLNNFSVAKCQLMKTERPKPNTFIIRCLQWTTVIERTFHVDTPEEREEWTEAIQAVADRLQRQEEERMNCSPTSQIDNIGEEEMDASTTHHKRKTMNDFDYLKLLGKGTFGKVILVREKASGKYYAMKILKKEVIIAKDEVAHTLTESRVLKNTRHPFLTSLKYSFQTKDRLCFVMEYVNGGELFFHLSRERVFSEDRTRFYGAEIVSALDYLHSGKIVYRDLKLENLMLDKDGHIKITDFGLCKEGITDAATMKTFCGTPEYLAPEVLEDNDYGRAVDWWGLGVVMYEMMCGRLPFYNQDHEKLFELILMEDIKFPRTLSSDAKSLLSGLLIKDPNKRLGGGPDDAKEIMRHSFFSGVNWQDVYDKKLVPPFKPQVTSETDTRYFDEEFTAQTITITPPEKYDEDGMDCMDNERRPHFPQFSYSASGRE

Row | SMILES | IC50 [1] [nM] | IC50 [2] [nM] | IC50 [3] [nM] | IC50 [4] [nM] | also measured
1 | COCCNC[C@@H](C(=O)N1CCN(c2ncnc3c2[C@H](C)C[C@H]3O)CC1)c1ccc(Cl)cc1 | 8 | 13 | 384 | 1000 | –
2 | C[C@@H]1C[C@@H](O)c2ncnc(N3CCN(C(=O)[C@H](CNCCF)c4ccc(Cl)cc4)CC3)c21 | 12 | 21 | 1300 | 1320 | –
3 | CC(C)NC[C@@H](C(=O)N1CCN(c2ncnc3c2[C@H](C)C[C@@H]3O)CC1)c1ccc(Cl)cc1 | – | – | – | 1550 | –
4 | C[C@@H]1C[C@@H](O)c2ncnc(N3CCN(C(=O)[C@H](CNCC4CC4)c4ccc(Cl)cc4)CC3)c21 | – | – | – | 777 | –
5 | CC(C)NC[C@@H](C(=O)N1CCN(c2ncnc3c2[C@H](CO)CC3)CC1)c1ccc(Cl)cc1 | 81 | 83 | 846 | 957 | –
6 | CC(C)NC[C@@H](C(=O)N1CCN(c2ncnc3c2[C@H](C)CC3(F)F)CC1)c1ccc(Cl)cc1 | 1170 | – | 8550 | > 10000 | –
7 | CC(C)N(C)C[C@@H](C(=O)N1CCN(c2ncnc3c2[C@H](C)C[C@H]3O)CC1)c1ccc(Cl)cc1 | 18 | – | 139 | 2140 | –
8 | C[C@@H]1C[C@@H](O)c2ncnc(N3CCN(C(=O)[C@H](CNC4CCCCC4)c4ccc(Cl)cc4)CC3)c21 | 9 | 7 | 367 | 1280 | –
9 | C[C@@H]1C[C@@H](O)c2ncnc(N3CCN(C(=O)[C@H](CNC4CCOCC4)c4ccc(Cl)cc4)CC3)c21 | – | – | – | 654 | –
10 | C[C@@H]1C[C@@H](O)c2ncnc(N3CCN(C(=O)[C@H](CN4CCC(F)CC4)c4ccc(Cl)cc4)CC3)c21 | 6 | – | 196 | 1200 | –
11 | C[C@@H]1C[C@@H](O)c2ncnc(N3CCN(C(=O)[C@H](CNCC(F)(F)F)c4ccc(Cl)cc4)CC3)c21 | 902 | 798 | – | > 10000 | –
12 | C[C@@H]1C[C@@H](O)c2ncnc(N3CCN(C(=O)[C@H](CN)c4ccc(Cl)cc4)CC3)c21 | 24 | 45 | 1450 | 700 | –
13 | C[C@@H]1C[C@@H](O)c2ncnc(N3CCN(C(=O)[C@@H](c4ccc(Cl)cc4)[C@@H]4COCCN4)CC3)c21 | 12 | 26 | 855 | 1360 | –
14 | C[C@@H]1C[C@@H](O)c2ncnc(N3CCN(C(=O)[C@@H](c4ccc(Cl)cc4)[C@@H]4CCCCN4)CC3)c21 | 9 | 12 | 530 | 1600 | –
15 | CC(C)NC[C@@H](C(=O)N1CCN(c2ncnc3c2[C@H](C)C[C@H]3O)CC1)c1ccc(Cl)cc1 [IPATASERTIB] | – | – | – | 3100 | concentration at 1 h [7]: ≥ 200 nM; IC50 (BT-474): 1000 nM; inhibition in vivo at 100 mg/kg (Mus musculus [8]): 87%; concentration at 1 h [9]: 7400 nM; IC50 (LNCaP): 95 nM; inhibition in vivo at 100 mg/kg (PC-3 [10]): 79%; solubility [11]: > 10000 µg/mL; minimal effective dose (PC-3 [12]): 25 mg/kg; Activity (Mus musculus [13]): < 10%; concentration at 9 h [14]: 500 nM; inhibition in vivo at 25 mg/kg (PC-3 [15]): 49%; inhibition in vivo at 100 mg/kg (Mus musculus [16]): > 95%; IC50 (MCF7): 1000 nM; inhibition [17]: Active; Activity (Mus musculus [18]): >= 20%; concentration at 8 h [19]: > 2600 nM; inhibition in vivo at 50 mg/kg (PC-3 [20]): 81%; concentration at 1 h [21]: ≥ 200 nM; IC50 (PC-3 [22]): 1000 nM
16 | CC(C)NC[C@@H](C(=O)N1CCN(c2ncnc3c2C(C)(C)CC3)CC1)c1ccc(Cl)cc1 | – | > 2000 | – | > 2000 | –
17 | CO[C@H]1CC[C@H](NC[C@@H](C(=O)N2CCN(c3ncnc4c3[C@H](C)C[C@H]4O)CC2)c2ccc(Cl)cc2)CC1 | 5 | 4 | 132 | 662 | –

Stronger by IC50 [4], values ahead:

Row | IC50 [1] [nM] | IC50 [2] [nM] | IC50 [3] [nM] | IC50 [4] [nM] | SMILES | also measured
18 | 12 | 27 | 603 | 418 | C[C@@H]1C[C@@H](O)c2ncnc(N3CCN(C(=O)[C@H](CN)c4ccc(C(F)(F)F)cc4)CC3)c21 | –
19 | 3 | 4 | 102 | 436 | C[C@@H]1C[C@@H](O)c2ncnc(N3CCN(C(=O)[C@H](CNCC4CCOCC4)c4ccc(Cl)cc4)CC3)c21 | –
20 | 2 | 1 | 176 | 10 | C=C[C@@H]1CCc2ncnc(N3CCN(C(=O)[C@H](CNC(C)C)c4ccc(Cl)cc4)CC3)c21 | –
21 | – | 2 | – | 103 | C[C@@H]1C[C@@H](O)c2ncnc(N3CCN(C(=O)[C@H](CNCC4CC4)c4ccc(C(F)(F)F)c(F)c4)CC3)c21 | –
22 | 3 | 5 | 241 | 271 | C[C@@H]1C[C@@H](O)c2ncnc(N3CCN(C(=O)[C@@H](c4ccc(Cl)cc4)[C@@H]4CCCN4)CC3)c21 | –
23 | 3 | 5 | 123 | 35 | CC(C)NC[C@@H](C(=O)N1CCN(c2ncnc3c2[C@H](CF)CC3)CC1)c1ccc(Cl)cc1 | –
24 | 2 | 3 | 75 | 293 | C[C@@H]1C[C@@H](O)c2ncnc(N3CCN(C(=O)[C@H](CNC(C)(C)CO)c4ccc(Cl)cc4)CC3)c21 | –
25 | 6 | 5 | 287 | 33 | CC(C)NC[C@@H](C(=O)N1CCN(c2ncnc3c2[C@H](C)CC3)CC1)c1ccc(Cl)cc1 | Papp A→B [5]: 13.2 ×10⁻⁶ cm/s; Papp B→A [6]: 19.2 ×10⁻⁶ cm/s
26 | – | 2 | – | 75 | C[C@@H]1C[C@@H](O)c2ncnc(N3CCN(C(=O)[C@H](CNC(C)(C)CO)c4ccc(C(F)(F)F)c(F)c4)CC3)c21 | –
27 | 12 | 12 | 139 | 556 | C[C@@H]1C[C@@H](O)c2ncnc(N3CCN(C(=O)[C@H](CNC4CCOCC4)c4ccc(Cl)c(F)c4)CC3)c21 | –
28 | – | 23 | – | 541 | CC(C)NC[C@@H](C(=O)N1CCN(c2ncnc3c2[C@H](C)C[C@@H]3F)CC1)c1ccc(Cl)cc1 | –
29 | – | – | – | 153 | C[C@@H]1C[C@@H](O)c2ncnc(N3CCN(C(=O)[C@H](CNC(C)(C)C)c4ccc(C(F)(F)F)c(F)c4)CC3)c21 | –
30 | 3 | 7 | 234 | 490 | CC(C)NC[C@@H](C(=O)N1CCN(c2ncnc3c2[C@H](C)C[C@H]3O)CC1)c1ccc(Cl)c(F)c1 | –
31 | – | 10 | – | 17 | CC(C)NC[C@@H](C(=O)N1CCN(c2ncnc3c2[C@H](C)C[C@H]3F)CC1)c1ccc(Cl)cc1 | –
